In assay [1] the target is Xanthine dehydrogenase/oxidase (Homo sapiens, UniProt P47989). Kind of assay: Inhibition of Xanthine oxidase (unknown origin) using xanthine as substrate preincubated for 1 to 5 mins followed by substrate addition.
In another assay the target is Toll-like receptor 4 (Homo sapiens, UniProt O00206). Kind of assay: Inhibition of human TLR4 signaling expressed in HEK-Blue cells co-expressing MD2/CD14 assessed as reduction in LPS-induced NF-kappaB activation-mediated SEAP production preincubated for 2 hrs followed by LPS stimulation for 20 hrs by colorimetric assay. It counts as cell-based.
The subject of assay [2] is Rattus norvegicus. Description: Antiarthritic activity in MSU-induced acute gouty arthritis Sprague-Dawley rat model assessed as reduction in ankle swelling by measuring perimeter of ankle at 10 mg/kg, po qd pretreated via gavage for 5 days followed by MSU treatment at 1 hr post last dose measured immediately (reference value: 2.64 +/- 0.81 cm). It counts as functional.

The test system of assay [3] is Rattus norvegicus. Description: Antiarthritic activity in MSU-induced acute gouty arthritis Sprague-Dawley rat model assessed as reduction in ankle swelling by measuring perimeter of ankle at 10 mg/kg, po qd pretreated via gavage for 5 days followed by MSU treatment at 1 hr post last dose measured after 2 hrs (reference value: 2.82 +/- 0.75 cm). The format is functional.

Assay [4] deals with Rattus norvegicus. Description: Antiarthritic activity in MSU-induced acute gouty arthritis Sprague-Dawley rat model assessed as reduction in ankle swelling by measuring perimeter of ankle at 10 mg/kg, po qd pretreated via gavage for 5 days followed by MSU treatment at 1 hr post last dose measured after 4 hrs (reference value: 3.18 +/- 0.64 cm). The format is functional.
Assay [5] relates to Rattus norvegicus. Kind of assay: Antiarthritic activity in MSU-induced acute gouty arthritis Sprague-Dawley rat model assessed as reduction in ankle swelling by measuring perimeter of ankle at 10 mg/kg, po qd pretreated via gavage for 5 days followed by MSU treatment at 1 hr post last dose measured after 8 hrs (reference value: 3.27 +/- 0.56 cm). It counts as functional.
In assay [6] the test system is Rattus norvegicus. Kind of assay: Antiarthritic activity in MSU-induced acute gouty arthritis Sprague-Dawley rat model assessed as reduction in ankle swelling by measuring perimeter of ankle at 10 mg/kg, po qd pretreated via gavage for 5 days followed by MSU treatment at 1 hr post last dose measured after 12 hrs (reference value: 3.51 +/- 0.52 cm). The format is functional.

Assay [7] concerns Rattus norvegicus. Description: Antiarthritic activity in MSU-induced acute gouty arthritis Sprague-Dawley rat model assessed as reduction in ankle swelling by measuring perimeter of ankle at 10 mg/kg, po qd pretreated via gavage for 5 days followed by MSU treatment at 1 hr post last dose measured after 24 hrs (reference value: 3.35 +/- 0.5 cm). The format is functional.
Assay [8] concerns Rattus norvegicus. Kind of assay: Inhibition of MSU-induced IL-1beta level in serum of acute gouty arthritis Sprague-Dawley rat model at 10 mg/kg, po qd pretreated via gavage for 5 days followed by MSU treatment at 1 hr post last dose measured up to 24 hrs by ELISA. The format is functional, organism-based.
Assay [9] deals with Rattus norvegicus. Description: Inhibition of MSU-induced TNFalpha level in serum of acute gouty arthritis Sprague-Dawley rat model at 10 mg/kg, po qd pretreated via gavage for 5 days followed by MSU treatment at 1 hr post last dose measured up to 24 hrs by ELISA. It counts as functional, organism-based. (An ELISA detects its analyte on a solid surface through an enzyme-linked reagent.)

The subject of assay [10] is Rattus norvegicus. Description: Inhibition of MSU-induced IL-1beta level in synovial homogenate of acute gouty arthritis Sprague-Dawley rat model at 10 mg/kg, po qd pretreated via gavage for 5 days followed by MSU treatment at 1 hr post last dose measured up to 24 hrs by ELISA. It counts as functional, organism-based.
Assay [11] relates to Rattus norvegicus. Description: Inhibition of MSU-induced TNFalpha level in synovial homogenate of acute gouty arthritis Sprague-Dawley rat model at 10 mg/kg, po qd pretreated via gavage for 5 days followed by MSU treatment at 1 hr post last dose measured up to 24 hrs by ELISA. The format is functional, organism-based.
For assay [12], the system named is Rattus norvegicus. Description: Inhibition of MSU-induced NLRP3 protein level in synovial homogenate of acute gouty arthritis Sprague-Dawley rat model at 10 mg/kg, po qd pretreated via gavage for 5 days followed by MSU treatment at 1 hr post last dose measured up to 24 hrs by Western blot method. It counts as functional, organism-based.
In assay [13] the test system is Rattus norvegicus. Description: Inhibition of MSU-induced ASC protein level in synovial homogenate of acute gouty arthritis Sprague-Dawley rat model at 10 mg/kg, po qd pretreated via gavage for 5 days followed by MSU treatment at 1 hr post last dose measured up to 24 hrs by Western blot method. It counts as functional, organism-based. (A western blot detects proteins with antibodies after separation by electrophoresis.)

Assay [14] relates to Rattus norvegicus. Kind of assay: Inhibition of MSU-induced caspase-1 protein level in synovial homogenate of acute gouty arthritis Sprague-Dawley rat model at 10 mg/kg, po qd pretreated via gavage for 5 days followed by MSU treatment at 1 hr post last dose measured up to 24 hrs by Western blot method. The format is functional, organism-based.
Assay [15] has as its system Rattus norvegicus. Kind of assay: Inhibition of MSU-induced TLR4 protein level in synovial homogenate of acute gouty arthritis Sprague-Dawley rat model at 10 mg/kg, po qd pretreated via gavage for 5 days followed by MSU treatment at 1 hr post last dose measured up to 24 hrs by Western blot method. It counts as functional, organism-based.
The subject of assay [16] is Rattus norvegicus. Description: Inhibition of MSU-induced MyD88 protein level in synovial homogenate of acute gouty arthritis Sprague-Dawley rat model at 10 mg/kg, po qd pretreated via gavage for 5 days followed by MSU treatment at 1 hr post last dose measured up to 24 hrs by Western blot method. It counts as functional, organism-based.
The subject of assay [17] is Rattus norvegicus. Kind of assay: Inhibition of MSU-induced phosphorylated IkappaB protein level in synovial homogenate of acute gouty arthritis Sprague-Dawley rat model at 10 mg/kg, po qd pretreated via gavage for 5 days followed by MSU treatment at 1 hr post last dose measured up to 24 hrs by Western blot method. It counts as functional, organism-based.
The subject of assay [18] is Rattus norvegicus. Kind of assay: Inhibition of MSU-induced p65 NFkappaB protein level in synovial homogenate of acute gouty arthritis Sprague-Dawley rat model at 10 mg/kg, po qd pretreated via gavage for 5 days followed by MSU treatment at 1 hr post last dose measured up to 24 hrs by Western blot method. The format is functional, organism-based.
Assay [19] concerns the target NACHT, LRR and PYD domains-containing protein 3 (Homo sapiens, UniProt Q96P20). Kind of assay: Inhibition of NLRP3 inflammasome in human THP1 cells assessed as reduction in MSU-induced IL-1beta production preincubated for 1 hr followed by MSU stimulation measured after 6 hrs. The format is cell-based.
Assay [20] has as its system Mus musculus. Kind of assay: In vivo inhibition of XOD activity in liver of Kunming mouse model of potassium oxonate-induced hyperuricemia at 10 mg/kg, po treated 1 hr post potassium oxonate addition measured after 1 hr relative to control. The format is functional.
The subject of assay [21] is Mus musculus. Description: Hypouricemic effect in Kunming mouse assessed as inhibition of hepatic XOD activity at 10 mg/kg, po measured after 1 hr relative to control. The format is organism-based.
Assay [22] is filed under the species Mus musculus. The conditions noted are these: Kunming, 10 mg/kg.
Description: Anti-hyperuricemic effect in Kunming mouse assessed as inhibition of potassium oxonate-induced serum uric acid level at 10 mg/kg, po treated 1 hr post potassium oxonate addition measured after 1 hr by phosphotungstic acid method relative to control

Each structure is given as a SMILES string. Calls of active or inactive are those of the source. The rule behind the calls is not given here.

Chain of NACHT, LRR and PYD domains-containing protein 3 (Q96P20 whole entry, the tested form may be a part): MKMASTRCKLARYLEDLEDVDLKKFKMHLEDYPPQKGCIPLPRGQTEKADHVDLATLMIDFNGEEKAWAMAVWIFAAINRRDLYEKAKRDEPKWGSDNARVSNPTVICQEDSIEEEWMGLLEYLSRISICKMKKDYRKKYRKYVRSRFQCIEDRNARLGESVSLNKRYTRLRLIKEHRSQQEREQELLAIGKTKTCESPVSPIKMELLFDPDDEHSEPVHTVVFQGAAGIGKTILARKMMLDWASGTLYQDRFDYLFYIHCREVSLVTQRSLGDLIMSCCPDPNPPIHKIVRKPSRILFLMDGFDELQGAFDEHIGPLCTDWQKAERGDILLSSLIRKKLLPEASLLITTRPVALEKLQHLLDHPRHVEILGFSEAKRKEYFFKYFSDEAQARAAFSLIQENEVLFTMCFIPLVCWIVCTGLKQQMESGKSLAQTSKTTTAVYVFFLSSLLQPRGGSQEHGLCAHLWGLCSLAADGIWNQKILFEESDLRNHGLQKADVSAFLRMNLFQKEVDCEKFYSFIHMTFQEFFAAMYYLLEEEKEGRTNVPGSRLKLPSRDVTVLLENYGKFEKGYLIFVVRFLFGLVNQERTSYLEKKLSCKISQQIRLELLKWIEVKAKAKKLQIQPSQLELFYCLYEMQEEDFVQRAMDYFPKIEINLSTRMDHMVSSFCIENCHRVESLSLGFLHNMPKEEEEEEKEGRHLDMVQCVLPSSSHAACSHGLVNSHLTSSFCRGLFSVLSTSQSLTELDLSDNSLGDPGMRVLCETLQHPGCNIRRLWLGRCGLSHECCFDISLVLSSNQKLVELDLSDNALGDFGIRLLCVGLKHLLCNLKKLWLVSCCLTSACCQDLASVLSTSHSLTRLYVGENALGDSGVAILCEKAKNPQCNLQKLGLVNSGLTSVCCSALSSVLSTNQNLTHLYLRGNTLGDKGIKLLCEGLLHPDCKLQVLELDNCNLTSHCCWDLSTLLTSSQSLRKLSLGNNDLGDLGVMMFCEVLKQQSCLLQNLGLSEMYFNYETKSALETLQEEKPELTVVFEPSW
Chain of Xanthine dehydrogenase/oxidase (P47989 whole entry): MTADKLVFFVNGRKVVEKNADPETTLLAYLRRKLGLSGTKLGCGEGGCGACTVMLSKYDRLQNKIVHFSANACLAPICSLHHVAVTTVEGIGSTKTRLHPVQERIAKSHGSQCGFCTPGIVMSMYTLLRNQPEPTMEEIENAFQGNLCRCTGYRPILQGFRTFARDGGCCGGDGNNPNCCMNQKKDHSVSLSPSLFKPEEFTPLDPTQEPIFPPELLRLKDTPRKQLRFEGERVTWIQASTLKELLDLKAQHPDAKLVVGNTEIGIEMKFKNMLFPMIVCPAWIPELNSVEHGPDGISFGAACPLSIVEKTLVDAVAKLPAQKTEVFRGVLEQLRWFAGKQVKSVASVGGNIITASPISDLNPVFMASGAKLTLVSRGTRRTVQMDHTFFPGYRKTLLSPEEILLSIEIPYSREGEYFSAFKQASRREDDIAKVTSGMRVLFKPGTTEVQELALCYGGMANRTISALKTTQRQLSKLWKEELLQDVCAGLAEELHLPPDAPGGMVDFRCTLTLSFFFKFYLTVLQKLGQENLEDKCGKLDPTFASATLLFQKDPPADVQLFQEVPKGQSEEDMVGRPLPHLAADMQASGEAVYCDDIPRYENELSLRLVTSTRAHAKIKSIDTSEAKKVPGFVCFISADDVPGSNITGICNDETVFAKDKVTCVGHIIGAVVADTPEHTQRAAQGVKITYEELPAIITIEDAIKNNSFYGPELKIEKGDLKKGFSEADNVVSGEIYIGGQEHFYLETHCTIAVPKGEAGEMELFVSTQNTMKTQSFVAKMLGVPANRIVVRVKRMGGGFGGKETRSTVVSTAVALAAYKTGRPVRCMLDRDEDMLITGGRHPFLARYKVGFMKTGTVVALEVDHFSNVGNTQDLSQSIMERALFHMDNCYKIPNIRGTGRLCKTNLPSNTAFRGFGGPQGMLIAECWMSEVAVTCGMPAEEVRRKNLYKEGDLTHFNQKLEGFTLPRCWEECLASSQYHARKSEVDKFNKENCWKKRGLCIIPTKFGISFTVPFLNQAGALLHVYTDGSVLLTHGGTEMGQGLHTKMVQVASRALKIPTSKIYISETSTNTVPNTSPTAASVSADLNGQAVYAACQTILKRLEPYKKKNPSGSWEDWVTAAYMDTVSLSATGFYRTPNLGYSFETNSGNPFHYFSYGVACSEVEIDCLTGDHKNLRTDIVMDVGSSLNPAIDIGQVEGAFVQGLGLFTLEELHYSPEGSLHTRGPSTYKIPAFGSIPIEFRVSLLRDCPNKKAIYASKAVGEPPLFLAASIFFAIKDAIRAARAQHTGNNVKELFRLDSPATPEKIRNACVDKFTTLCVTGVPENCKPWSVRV
Chain of Toll-like receptor 4 (O00206 whole entry): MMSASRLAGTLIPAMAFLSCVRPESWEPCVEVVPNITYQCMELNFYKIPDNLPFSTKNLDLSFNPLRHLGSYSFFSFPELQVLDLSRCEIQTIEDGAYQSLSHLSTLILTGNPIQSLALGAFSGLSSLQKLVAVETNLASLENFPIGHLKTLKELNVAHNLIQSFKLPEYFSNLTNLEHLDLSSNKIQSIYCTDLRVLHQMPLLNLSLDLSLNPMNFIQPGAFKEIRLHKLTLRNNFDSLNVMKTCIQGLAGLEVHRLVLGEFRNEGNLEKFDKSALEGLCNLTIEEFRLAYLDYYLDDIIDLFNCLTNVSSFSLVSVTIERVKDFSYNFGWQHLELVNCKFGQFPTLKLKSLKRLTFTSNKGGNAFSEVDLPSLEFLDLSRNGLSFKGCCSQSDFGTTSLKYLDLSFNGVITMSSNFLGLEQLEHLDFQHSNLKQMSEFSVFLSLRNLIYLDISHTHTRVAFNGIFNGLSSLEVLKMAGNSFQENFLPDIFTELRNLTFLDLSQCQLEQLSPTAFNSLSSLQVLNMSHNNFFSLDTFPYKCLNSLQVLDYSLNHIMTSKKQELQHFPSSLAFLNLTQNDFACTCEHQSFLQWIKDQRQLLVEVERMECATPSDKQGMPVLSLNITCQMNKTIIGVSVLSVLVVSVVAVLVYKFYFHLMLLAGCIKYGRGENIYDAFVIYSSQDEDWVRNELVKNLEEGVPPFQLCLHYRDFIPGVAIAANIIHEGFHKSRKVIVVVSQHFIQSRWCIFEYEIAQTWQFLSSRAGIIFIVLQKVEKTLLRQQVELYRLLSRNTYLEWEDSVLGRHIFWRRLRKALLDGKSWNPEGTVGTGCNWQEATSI

In general, IC50 refers to the concentration at which inhibition is half-maximal. `O/N=C(\Cc1ccccc1)c1nc2ccc(Br)cc2o1` had an IC50 in [1] greater than 100 µM.

Consider `Cc1ccc2oc(/C(Cc3ccc(F)cc3)=N/O)nc2c1`, for which the IC50 on Toll-like receptor 4 came to 45.7 µM.

As to `O/N=C(\Cc1ccc(F)cc1)c1nc2ccc(Br)cc2o1`, the IC50 in assay [1] was greater than 100 µM.

What is called inhibition is the drop in the measured response relative to a control, in per cent. As for `COc1cc2c(c(OC)c1OC)-c1ccc(OC)c(=O)cc1[C@@H](NC(C)=O)CC2` [COLCHICINE], the Activity in the assay on Rattus norvegicus [2] turned out to be 2.49 cm; in the assay with Rattus norvegicus [3], 2.73 cm; with Rattus norvegicus [4], 2.81 cm; with Rattus norvegicus [5], 2.77 cm; in the assay with Rattus norvegicus [6], 2.8 cm; with Rattus norvegicus [7], 2.79 cm. For the same molecule, the inhibition entry in the assay with Rattus norvegicus [8], in the assay with Rattus norvegicus [9], in the assay on Rattus norvegicus [10], with Rattus norvegicus [11], in the assay on Rattus norvegicus [12] and in the assay on Rattus norvegicus [13] was “Active” in each case. The inhibition entry with Rattus norvegicus [14], in the assay with Rattus norvegicus [15], in the assay on Rattus norvegicus [16], with Rattus norvegicus [17] and in the assay with Rattus norvegicus [18] was “Active” each time.

The molecule `O/N=C(\Cc1ccc(F)cc1)c1nc2ccc(Cl)cc2o1` showed an IC50 in [1] greater than 100 µM.

`O/N=C(\Cc1ccc(F)cc1)c1nc2cc(Cl)ccc2o1` registered an IC50 in [1] greater than 100 µM.

With `O=C(/C=C/c1ccc(O)cc1)c1ccc(O)cc1O` [ISOLIQUIRITIGENIN], the half-inhibitory concentration (IC50) in assay [19] amounted to 1.54 µM.

On to `COc1ccc(C/C(=N\O)c2nc3ccc(Cl)cc3o2)cc1`, for which the IC50 in assay [1] worked out at 17.8 µM; in [19] it was 5.72 µM; at Toll-like receptor 4, 5.42 µM.

Broadly, the inhibition in vivo is the change of the read-out against control, counted positive when it falls. Higher therefore signals a strong effect. As to `Oc1ncnc2[nH]ncc12` [ALLOPURINOL], in the assay with Mus musculus [20], the inhibition in vivo at 10 mg/kg worked out at 47.1%. Moreover, the inhibition at 10 mg/kg in the assay on Mus musculus [21] amounted to 27.9%. Moreover, the inhibition result in the assay filed under Mus musculus [22] is “Active”.

Consider `CCOC(=O)C1=CCCC[C@H]1S(=O)(=O)Nc1ccc(F)cc1Cl` [RESATORVID], for which the IC50 at Toll-like receptor 4 is 0.68 µM.

As to `COc1ccccc1C(=O)O/N=C(\C)c1nc2ccccc2o1`, the IC50 in assay [1] stood at 15.2 µM; in assay [19], 39.5 µM; on Toll-like receptor 4, 25.9 µM.

`Cc1ccc2nc(/C(Cc3ccccc3)=N/O)oc2c1`: the IC50 at Toll-like receptor 4 is 19.3 µM.
